In publication PMC9136103 (The Journal of Biological Chemistry, 2022):

Legend:
[1] = target: T1, human ornithine aminotransferase (hOAT) (Homo sapiens, UniProt P04181); test: crystal structure by soaking (~[…] Å); stopped-flow kinetics Kd; type: biochemical
T1 construct: gene OAT; t-hOAT expressed as MBP fusion, MBP tag removed
T1 sequence (P04181 26-439 limits assumed): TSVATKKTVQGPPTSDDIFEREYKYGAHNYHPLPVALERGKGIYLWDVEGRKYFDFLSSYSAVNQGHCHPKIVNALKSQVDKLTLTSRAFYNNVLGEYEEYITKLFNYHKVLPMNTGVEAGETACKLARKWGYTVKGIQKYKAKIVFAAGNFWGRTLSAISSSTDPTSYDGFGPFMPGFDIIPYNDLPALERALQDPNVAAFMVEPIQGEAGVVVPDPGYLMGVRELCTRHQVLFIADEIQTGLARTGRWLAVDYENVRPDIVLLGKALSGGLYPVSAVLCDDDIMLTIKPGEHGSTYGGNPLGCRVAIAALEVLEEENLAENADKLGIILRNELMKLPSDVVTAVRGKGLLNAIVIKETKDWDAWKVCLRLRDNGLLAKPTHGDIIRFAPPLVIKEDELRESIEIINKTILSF

[2] = target: T1, human ornithine aminotransferase (hOAT); test: crystal structure by soaking (~[…] Å); UV-Vis titration Kd; type: binding
[3] = target: T1, human ornithine aminotransferase (hOAT); test: stopped-flow transient-state kinetics, purified enzyme (Kd not determined); type: biochemical
[4] = target: T1, human ornithine aminotransferase (hOAT); test: stopped-flow transient-state kinetics, purified enzyme; type: biochemical; settings: read-out: Dissociation constant (Kd)

**Q.** Which Kd [1] does the source give for `NCCCCC(=O)O` [AVA, 5-aminovaleric acid] here?
**A.** 735 ± 78 µM

**Q.** `NCCCC(=O)O` [GABA, γ-aminobutyric acid] was tested. Which Kd [2] did it give?
**A.** 110 ± 15 µM

**Q.** Which klim/Kd [3] does the source give for `NCC[C@H](N)C(=O)O` [DABA, L-2,4-diaminobutyric acid] here?
**A.** 0.249 ± 0.006 M⁻¹ s⁻¹

**Q.** `NCCC[C@H](N)C(=O)O` [L-Orn, L-ornithine] was tested. Which Kd [4] did it give?
**A.** 4700 ± 290 µM
